Converted amounts (≈) assume the structure as drawn. “Also recorded” adds a separate entry of the source. Like-named read-outs stand apart in the source and are kept apart here.
Experiments:
[1] = MTT cytotoxicity assay on VERO cells; type: cell-based; conditions: African green monkey, MTT, 80 to 10 µM
Protocol: (§1) The cytotoxicity of the compounds showing antibacterial activity was evaluated in VERO cell cultures (FTVE, Vircell, S.L., Granada, Spain) using the standard MTT colorimetric assay. Briefly, sub confluent cell cultures were exposed for 48 h, to 2-fold dilutions of each assayed compound, ranging from 80 to 10 µM, in 100 μL CO2-independent medium supplemented with 5% FBS and […] gentamicin (Gibco^TM, Grand Island, NY, USA) (CO2-ind-FBS5). In each assay, cells exposed to equivalent concentrations of DMSO as solvent and untreated cells were kept as controls; untreated cells were considered the baseline for 100% viability.
(§2) After 48-h incubation at 37 °C, the culture medium was replaced by fresh CO2-ind-FBS5 medium supplemented with 0.5 mg/mL MTT (Thermo Fisher Scientific, Waltham, MA, USA). Upon a 3-h incubation at 37 °C, the medium was carefully discarded, and the purple formazan crystals formed were dissolved in DMSO (100 μL/well) during a 15-min incubation with agitation at room temperature, followed by absorbance reading at 570 nm, with reference wavelength at 630 nm (BioTek Epoch2, Agilent, Winooski, VT, USA). Data analysis and visualization were performed using Excel (v.2408) and RStudio (v. 2024.04.2). When possible, the half maximal cytotoxic concentration (CC50) values were determined for each compound by fitting a dose–response three- or four-parameter log-logistic function to the triplicate experimental points using RStudio (v.2024.04.2).
(§3) The selectivity index (SI) is the ratio of the cytotoxic concentration for 50% of the cells (CC50) to the inhibitory concentration for 50% of the bacteria (IC50). Considering that IC50 values were not calculated, but are expectably lower than the MIC value, the SI was estimated by dividing the CC50 by the MIC. Therefore, this value is necessarily lower than the SI because the MIC, rather than the bacterial half-maximal inhibitory concentration (IC50), was used in the calculation. This approach allows for an estimation of the therapeutic potential of the compound by providing an indication of its selectivity for targeting bacterial cells over host cells, even though the MIC is used instead of the bacterial IC50.
(§4) To compare biofilm formation between groups (negative control, H. pylori J99, and compound treatments), one-way analysis of variance (ANOVA) was performed, followed by Tukey’s post-hoc test for multiple comparisons. Data analysis was conducted using Python 3.13.5. Similarly, for the cytotoxicity assay in VERO cells, ANOVA and Tukey’s post-hoc test were also used to compare groups at each tested concentration (ranging from 80 to 10 µM), with DMSO-treated and untreated cells as reference groups.

[2] = test system: H. pylori reference strain J99; assay: MIC and MBC by microdilution against H. pylori reference strain J99; type: cell-based, Helicobacter pylori; conditions: for MBC: (-) = MBC not determined, as bacterial growth was observed at all tested concentrations (up to 20 µM)
Protocol: To evaluate the activity of the natural products library, in vitro assays were conducted to determine the MIC and MBC against the H. pylori reference strain J99. […] The microplates were then incubated at 37 °C in microaerophilic conditions for 48 h with agitation of 140 rpm. After incubation, the optical density was read at 600 nm (BioTek Epoch2, Agilent, Winooski, VT, USA). All assays were performed in duplicate. DMSO at a concentration of 1% (v/v) was included as a negative control to assess the baseline effect of the solvent, in which bacterial growth was expected, while kanamycin (Sigma-Aldrich, St. Louis, MO, USA) at a concentration of 8 µg/mL was used as a positive control to provide a benchmark for effective antibacterial activity. MIC values were defined as the lowest concentration of a compound that inhibited the growth of H. pylori. MBC values were determined by plating 5 µL aliquots of each dilution onto H. pylori-selective medium, followed by incubation as described above. MBC was defined as the lowest concentration of a compound that rendered no visible colony formation on the solid medium, indicating bactericidal activity.

[3] = test system: VERO cells; assay: MTT cytotoxicity assay on VERO cells; type: cell-based; conditions: 48 h, 10 to 80 µM, versus DMSO and untreated controls
Protocol: as §1, §2, §3, §4

[4] = Helicobacter pylori, H. pylori J99, 48 h, 2-fold dilutions 20 to 0.625 µM
[5] = Helicobacter pylori, H. pylori J99, after conversion from µM to µg/mL
[6] = Helicobacter pylori, H. pylori J99, read-out: MBC

Compound | CC50 at 48 h [1] | MIC [2, 4] | MIC [2, 5] | Effect on cell viability (MTT) [3] | MBC [2, 6] | MBC ([2]; H. pylori J99)
CCC1CN(C)C2Cc3c([nH]c4ccccc34)C(=NN=Cc3c[nH]c4ccccc34)CC1C2C(=O)OC (centres unmarked) [Compound 4, Dregamine(indolylmethylene)hydrazone] | 47 ± 2.2 µM | 10 µM | 4.96 µg/mL |  |  | 
CCC1CN(C)C2Cc3c([nH]c4ccccc34)C(=NN=Cc3c[nH]c4cc(Br)ccc34)CC1C2C(=O)OC (centres unmarked) [Compound 6, Dregamine(6′bromo-3′indolylmethylene)hydrazone] | > 80 µM | 10 µM | 5.75 µg/mL | only a slight decrease in cell viability; also recorded: did not induce significant cytotoxicity at any tested concentration | 20 µM (≈ 11.5 µg/mL) | 
CCC1CN(C)C2Cc3c([nH]c4ccccc34)C(=NN=CC=Cc3ccccc3)CC1C2C(=O)OC (centres unmarked) [Compound 3, Dregamine(phenylallylidene)hydrazone] | 44.1 ± 2.4 µM | 20 µM | 9.65 µg/mL |  | 20 µM (≈ 9.65 µg/mL) | 20 (20) µM
CCC1CN(C)C2Cc3c([nH]c4ccccc34)C(=NN=Cc3ccccc3O)CC1C2C(=O)OC (centres unmarked) [Compound 5, Dregamine(2′-hydroxybenzylidene)hydrazone] | 55.8 ± 4.5 µM | 20 µM | 9.45 µg/mL |  |  | 
CCC1CN(C)C2Cc3c([nH]c4ccccc34)C(c3c(OC)ccc4c5c([nH]c34)C3(C(=O)OC)CC4CC(CC)C3N(CC5)C4CC(C)=O)CC1C2C(=O)OC (centres unmarked) [Compound 7, Tabernaelegantinine A] | > 80 µM | 20 µM | 15.2 µg/mL | only a slight decrease in cell viability; also recorded: significant effects only at 80 µM |  | 

Reference: paper PMC12386351, “Monoterpene Indole Alkaloids with Antimicrobial Activity Against Helicobacter pylori” (International Journal of Molecular Sciences, 2025)
